How the values were obtained:
[1] = test system: iNKT cells; assay: In vivo anergy of iNKT cells after lipid preconditioning; set-up: species or system mice; conditions: for iNKT cell anergy (IFNγ 18 h after OVA and alphaGalCer at day zero): preconditioned with 100 ng lipid at day −28
Procedure: The following experiment was designed to assess the in vivo anergy of iNKT cells as defined by their ability to enhance antigen-specific T- and B-cell responses. Mice were pre-conditioned at day −28 with individual lipids shown in FIG. 12 (100 ng i.v. of either alphaGalCer, IMM47, IMM60, or IMM70). Eighteen hours later, mice were bled to assess iNKT cell activation, as defined by IFN-gamma (determined by ELISA(eBioscience)), results shown in FIG. 13. At day zero (28 days after lipid preconditioning), expression of the iNKT cell activation marker PD1 was measured in splenic iNKT cells (FIG. 14).
Eighteen hours later, iNKT cell activation was analyzed by IFNγ expression by ELISA (FIG. 15). At day 7, T cell responses were analyzed (FIG. 16).

[2] = test system: human dendritic cells; assay: Lysis of monocyte-derived dendritic cells cultured with human iNKT cells and lipid, PI staining; assay type: cell-based; conditions: 40 hours; for dendritic cell killing: various concentrations
Procedure: Monocyte-derived dendritic cells and human iNKT cells were cultured with various concentrations of each lipid for 40 hours and then PI stained to determine percent dendritic cell lysis (and percent survival).

[3] = test system: EG7 cells (EL4 cells transfected with full length ovalbumin); assay: EG7 tumor regression in mice immunized with OVA plus lipid; assay type: in vivo; conditions: 800 μg OVA plus lipid four days after 1×10^6 EG7 cells
Procedure: Mice were injected with 1×10^6 EG7 cells (EL4 cells transfected with full length ovalbumin).

[4] = target: T1, iNKT cell TCR (Homo sapiens, UniProt P15813); conditions: cited from earlier work
T1 sequence (P15813 20-301 limits assumed): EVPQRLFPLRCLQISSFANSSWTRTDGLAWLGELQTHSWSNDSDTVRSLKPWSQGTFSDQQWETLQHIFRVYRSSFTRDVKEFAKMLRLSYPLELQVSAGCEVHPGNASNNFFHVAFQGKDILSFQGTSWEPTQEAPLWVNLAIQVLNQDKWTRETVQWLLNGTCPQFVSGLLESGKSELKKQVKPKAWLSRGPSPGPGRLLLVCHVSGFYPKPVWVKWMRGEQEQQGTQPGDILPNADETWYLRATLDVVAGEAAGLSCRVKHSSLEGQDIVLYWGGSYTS

[5] = target: T2, human iNKT cell TCRs for hCD1d loaded with lipid (Homo sapiens, UniProt P15813); assay: SPR of soluble human iNKT TCR binding to hCD1d-lipid complexes
T2 construct: made in house
T2 sequence (P15813 20-301 limits assumed): T1 sequence (P15813 20-301 limits assumed)
From the text: The binding kinetics of these ThrCer and α-GalCer analogue compounds were examined. To this end, bacterially-expressed hCD1d and β-2-microglobulin (β 2 M) molecules were refolded with the thioamide, and carbamate analogues of both α-GalCer and ThrCer by oxidative refolding chromatography, and then biotinylated. The urea analogues of α-GalCer and ThrCer could not be refolded, and therefore, no surface plasmon resonance (SPR) data are available for these molecules. Soluble human iNKT TCR was prepared. SPR experiments were used to measure the affinity and kinetics of human iNKT cell TCRs for hCD1d loaded with α-GalCer, ThrCer, and their thioamide and carbamate analogues (FIGS. 5A-5B). To this end, increasing concentrations of TCR were injected for 5 seconds over the indicated complex immobilized on the BIAcore chip until the specific binding reached its plateau. Kd and Bmax were calculated by fitting the data using non-linear regression binding kinetics model (FIGS. 5A-5B). Kinetic measurements for the koff were calculated using BIAevaluation software kit; kon values were calculated from the experimental koff and Kd.
Protein expression and purification: hCD1d and β2m were refolded with α-GalCer, IMM47, IMM60, IMM70 or IMM80 by oxidative chromatography. In summary, CD1d and β2m were overexpressed in E. coli BL21 using a prokaryotic expression system (Novagen, UK). […]

With CCCCCCCCCCCCCCCCCCCCCCCCCC(=O)N[C@H](CO[C@H]1CC[C@H](O)[C@H](O)[C@H]1O)[C@@H](O)[C@@H](O)CCCCCCCCCCCCCC [IMM60, N-((2R,3R,4S)-3,4-dihydroxy-1-(((1S,2R,3S,4S)-2,3,4-trihydroxycyclohexyl)oxy)octadecan-2-yl)hexacosanamide] the “iNKT cell activation (IFN-gamma at 18 h, PD1 at 28 days)” value ([1]; 100 ng i.v. preconditioning at day −28) was “stronger iNKT cell activation than IMM47, IMM70, or even alphaGalCer”, the “iNKT cell anergy (IFNγ 18 h after OVA and alphaGalCer at day zero)” value (“iNKT cell anergy” below) [1] was “highest iNKT cell anergy” and the dendritic cell killing [2] was “highest dendritic cell killing”. The “regression of established tumour” value [3] was “induced regression of the established tumour”.
For CCCCCCCCCCCCCCCCCCCCCCCCCC(=O)N[C@H](CO[C@H]1CCC[C@H](O)[C@H](O)[C@H]1O)[C@@H](O)[C@@H](O)CCCCCCCCCCCCCC [IMM70, N-((2R,3R,4S)-3,4-dihydroxy-1-(((1S,2R,3S,4S)-2,3,4-trihydroxycycloheptyl)oxy)octadecan-2-yl)hexacosanamide], the T-cell response ([1]; day 7 after immunization of preconditioned mice) was “highest T-cell response”, the “iNKT cell anergy” value [1] was “functional iNKT cells” and the “percentage of DC lysis” value ([2]; concentrations lower than 5 ng/ml) was “very similar to the results obtained with IMM47”.
In the case of CCCCCCCCCCCCCCCCCCCCCCCC(=O)NC(COC1OC(CO)C(O)C(O)C1O)C(O)C(O)CCCCC (stereo not shown) [OCH9 12], the Kd ([4]; OCH9 on CD1d) is given as 123 ± 9.08 µM, the “k0 (on rate)” value ([4]; OCH9 on CD1d) is given as 23000 ± 1000 M⁻¹ s⁻¹ and the koff ([4]; OCH9 on CD1d) is given as 2.67 ± 0.12 s⁻¹. For the same compound, the “interaction with iNKT cell TCRs” value ([4]; recent study, versus α-GalCer) was “weaker interactions than α-GalCer”.
In the case of CCCCCCCCCCCCCCCCCCCCCCCCCC(=O)N[C@@H](COC[C@H](O)[C@@H](O)CO)[C@H](O)[C@H](O)CCCCCCCCCCCCCC [ThrCer 2, threitolceramide], the “iNKT cell anergy” value [1] is reported as “weakest iNKT cell anergy” and the dendritic cell killing [2] is reported as “lowest dendritic cell killing”.
In the case of CCCCCCCCCCCCCCCCCCCCCCCCCC(=O)N[C@@H](CO[C@H]1O[C@H](CO)[C@H](O)[C@H](O)[C@H]1O)[C@H](O)[C@H](O)CCCCCCCCCCCCCC [α-GalCer 1, α-galactosylceramide], the kon ([5]; calculated from experimental koff and Kd) is reported as 2580 ± 90 M⁻¹ s⁻¹, the koff ([5]; lipid on CD1d, read-out: experimental koff) is reported as 0.565 ± 0.008 s⁻¹ and the “iNKT cell anergy” value [1] is reported as “highest iNKT cell anergy”.

— patent publication US10765648B2, “iNKT cell modulators and methods of using the same” (LUDWIG INSTITUTE FOR CANCER RESEARCH, priority 2011, dated 2020)
